Experimental data: US9532997B2, “Compositions and methods for promoting intestinal stem cell function” (Whitehead Institute for Biomedical Research, priority 2012, dated 2017)
“Also recorded” adds a separate entry of the source.

Tests used:
[1] = test system: AL and CR-derived crypts; test: Crypt culture organoid formation with agent added to culture media; assay type: cell-based, mice; conditions: for organoid forming capacity of AL and CR-derived crypts: 100 nM, FIG. 4h
Method: Small intestines were removed and the fat/mesentery was dissected away. The intestinal lumen was washed with ice cold PBS (Mg—/Ca—) using a 18 G feeding needle (Roboz FN-7905) until the intestines appeared white/pink. They were then opened longitudinally. The mucous was removed by gently rubbing the intestine between fingers in cold PBS. The intestines were cut into 3 to 5 mm fragments and placed into 50 ml conical tubes that were fill with ice cold 30 ml of PBS (Mg—/Ca—)/EDTA (10 mM). The samples were incubated and shook intermittently on ice for 30 minutes continuously discarding and replacing (at least 3 times) the supernatant. The fragments were then continually resuspended with ice cold 30 ml PBS (Mg—/Ca—)/EDTA (10 mM) and intermittently shook on ice for 10 minutes, discarding the supernatant again for 3 times. The fragments were resuspended again with ice cold 30 ml PBS (Mg—/Ca—)/EDTA (10 mM) and incubated and intermittently shook while waiting on ice for 20 to 40 minutes. The samples were then triturated with a 10 ml pipette 1 to 2 times, and the contents were filtered twice through a 70-μm mesh (BD Falcon) into a 50 ml conical tube to remove villous material and tissue fragments. At this point the suspension was mainly composed of crypts. Crypts were removed from this step for crypt culture experiments and embedded in matrigel with crypt culture media. For ISC isolation, the crypt suspensions were centrifuged for 5 minutes at 250 g (4 C or room temperature). The pellets were gently resuspended in 1.0 ml of undiluted TrypLE Express (Invitrogen)+120 μl of DNase I (10 U/μl, Roche) and transferred to 15 ml conical tubes. The samples were incubated in a 32° C. water bath for 1.25 to 2 minutes, were not titurated, and were then placed on ice. 12 ml of cold SMEM was added to each sample and were gently triturated twice. […]
Isolated crypts were counted and embedded in matrigel (BD Bioscience 356231 growth factor reduced) that contains 1 μM Jagged (Ana-Spec) at 5-10 crypts/μl and cultured in a modified form of medium as described in^3. […]

[2] = biological target: T1, mTORC1 (Mus musculus, UniProt P26883+Q9JLN9); test: Phospho-S6 (P-S6) immunostain as mTORC1 reporter in intestine / sorted Paneth cells; assay type: in vivo, mice
T1 construct: from tissue; host or cells: mouse small intestine sections, isolated crypts and sorted Paneth cells
Source text: Mice were housed in the Unit for Laboratory Animal Medicine at the Whitehead Institute for Biomedical Research. Lgr5-EGFP-IRES-CreERT2 mice (Strain name: B6.129P2-Lgr5tm1(cre/ERT2)Cle/J, Stock Number: 008875) were purchased from Jackson Laboratories. UbiquitinC-CreERT2 mice were obtained from the Jackson Laboratory (Strain Name: B6; 129S-Tg(UBC-cre/ERT2)1Ejb/J, Stock Number: 007001). Rictor floxed mice were generated as described in^27 and backcrossed to C57BL/6 for at least 6 generations. TSC1^loxp/loxp mice were the generous gift of D. Kwiatkowski (Harvard Medical School) and backcrossed to C57BL/6 for at least 6 generations. Rosa26-CreERT2 mice (Rosa26 or R26) were obtained from the Jackson Laboratory (Strain 15 Name: B6.129-Gt(ROSA)26Sor^iml(cre/ERT2)Tyj/J, Stock Number 008463). CR was achieved by providing individual or paired mice a daily portion of a chow diet fortified with vitamins and minerals amounting to 60% of the daily food intake of their ad libitum counterparts^20. All adult mice used in CR experiments were between the ages of 10 to 24 weeks and were sacrificed prior to their daily feeding. Rictor or TSC1 was excised by treatment with tamoxifen suspended in corn or sunflower seed oil (Spectrum) at a concentration of 10 mg/mL, and 200 μl per 25 g of body weight was injected intraperitoneally into mice once daily for 5-7 days. […] Mice were allowed to recover for at least 7 days after the last tamoxifen injection prior to any experiments. In vivo fate mapping in Lgr5-EGFP-IRES-reERT2; Rosa26loxpstoploxp-LacZ compound mice was done with a single injection of tamoxifen given at 200 μl per 25 g. As described previously^28, Rapamycin (LC Laboratories) was administered by intraperitoneal injection for 7 to 28 consecutive doses at 4 mg/kg. It was reconstituted in absolute ethanol at 10 mg/ml and diluted in 5% Tween-80 (Sigma) and 5% PEG-400 (Hampton Research) before injection. The final volume of all injections was 200 μl. Regular insulin (Lilly) was administered at 0.75 U/kg diluted in PBS 20 minutes prior to sacrificing fasted mice. […]

[3] = biological target: T2, Bst-1 (Mus musculus, UniProt Q64277); test: Bst-1 siRNA knock-down in CR-derived crypts, organoid formation; assay type: cell-based, mice; conditions: cADPR added to siRNA-treated crypts
T2 construct: endogenous in cells; host or cells: primary small-intestinal crypts from calorie-restricted mice, cultured in matrigel
T2 sequence (Q64277 25-286): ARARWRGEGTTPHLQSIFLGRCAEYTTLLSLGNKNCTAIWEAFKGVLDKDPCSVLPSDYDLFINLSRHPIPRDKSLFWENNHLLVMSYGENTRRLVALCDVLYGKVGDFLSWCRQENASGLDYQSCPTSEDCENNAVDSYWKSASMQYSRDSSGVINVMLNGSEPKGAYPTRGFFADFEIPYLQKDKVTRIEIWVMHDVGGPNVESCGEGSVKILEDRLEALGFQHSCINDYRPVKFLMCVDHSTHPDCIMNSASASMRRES
Method: Isolated ISCs or Paneth cells were centrifuged for 5 minutes at 250 g and then resuspended in the appropriate volume of crypt culture medium (500-1000 cells/μl) supplemented with 1×N2 (Invitrogen), 1×B27 (Invitrogen), 100 ng/ml Wnt-3A (R&D), and with additional 500 ng/ml R-Spondin to yield 1 μg/ml final concentration. ISCs were then seeded into matrigel (BD Bioscience 356231 growth factor reduced) containing 1 μM Jagged (Ana-Spec) up to 5,000-10,000 cells/30-50 μl. 30 μl drops of 65% matrigel were plated onto a flat bottom 48-well plate (Corning 3548) and then Paneth cells were added at the same cell count to the top of the matrigel drop. Alternatively, ISCs and Paneth cells were mixed after sorting in a 1:1 ratio, centrifuged, and then seeded into matrigel. The matrigel drops with ISCs and Paneth cells were allowed to solidify for 20 to 30 minutes in a 37° C. incubator. […] Organoid bodies were quantitated on days 3, 7, and 9 days of culture, unless otherwise specified. In subcloning experiments, either individual or cultures of organoids were manually disrupted as indicated in the text on day 7-9 by rigorous tituration and replated into fresh matrigel; these secondary organoid bodies were quantitated on day 18 after initiation of the primary cultures. […]

`OCCN(CCO)c1nc(N2CCCCC2)c2nc(N(CCO)CCO)nc(N3CCCCC3)c2n1` [Dipyridamole] was tested, and the “organoid forming capacity of AL and CR-derived crypts” value [1] was “reduced the organoid forming capacity of AL and CR-derived crypts to a similar level” and the “organoid forming capacity of AL and CR-derived crypts” value ([1]; listed as dipyridamole) was “reduced the clonogenicity of CR and AL-derived crypts to same level”.

“insulin: Regular insulin (Lilly) administered at 0.75 U/kg to fasted mice” was tested, and the “P-S6 in sorted Paneth cells from fasted mice” value ([2]; 20 minutes after injection, FIG. 2b) was “induced” and the “mTORC1 activity (P-S6) in Paneth cells” value ([2]; fasted mice, insulin 0.75 U/kg, FIG. 2a) was “activates mTORC1 in Paneth cells”.

For `N=c1c2ncn3c2ncn1[C@@H]1O[C@H](COP(=O)(O)OP(=O)(O)OC[C@H]2O[C@@H]3[C@H](O)[C@@H]2O)[C@@H](O)[C@H]1O` [cADPR, cyclic ADP ribose], the “organoid forming potential (clonogenicity and size) of AL crypts” value ([1]; 50 μM added to culture media, FIG. 4e) was “significantly improved the clonogenicity and size of AL-derived organoid bodies; also recorded: increased the organoid forming potential of AL crypts to an extent similar to those of CR crypts” and the “rescue of function of Bst-1 knock-down CR crypts” value [3] was “sufficient to rescue the function of these crypts”.
